{"source": "paper PMC3599355", "about": "“Discovery and characterization of a highly efficient enantioselective mandelonitrile hydrolase from Burkholderia cenocepacia J2315 by phylogeny-based enzymatic substrate specificity prediction” (BMC Biotechnology, 2013)", "molecular_target": "T1, BCJ2315 (Burkholderia cenocepacia, UniProt B4E7T0)", "T1 construct": "gene BCAL2585; full-length gene in pQE30 (BamHI/HindIII), His-tag kept, E. coli M15; 37 kDa subunit, native about 450 kDa, 12 identical subunits", "T1 sequence (B4E7T0 entry or part of it)": "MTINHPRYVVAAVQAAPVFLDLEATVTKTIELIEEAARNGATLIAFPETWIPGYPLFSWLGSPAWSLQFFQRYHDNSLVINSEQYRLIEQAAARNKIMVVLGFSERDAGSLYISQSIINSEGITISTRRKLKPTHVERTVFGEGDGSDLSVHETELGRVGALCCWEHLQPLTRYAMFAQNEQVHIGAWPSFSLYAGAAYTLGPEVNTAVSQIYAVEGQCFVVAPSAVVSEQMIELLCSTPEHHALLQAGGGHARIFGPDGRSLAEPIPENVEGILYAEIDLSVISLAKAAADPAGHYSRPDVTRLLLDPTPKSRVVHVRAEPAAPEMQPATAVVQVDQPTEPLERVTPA", "test": "HPLC hydrolysis assay, Lineweaver-Burk", "assay_type": "biochemical", "conditions": "standard assay: 100 mM sodium phosphate pH 7.0, 30 °C; mandelonitrile 0.1 to 15 mM; stereo form not stated", "data": [{"smiles": "N#CC(O)c1ccccc1", "note": "(stereo not shown) [mandelonitrile]", "values": [{"measurement": "Km", "value": 140, "unit": "µM"}]}]}
